{
  "source": "patent US20230111310A1",
  "about": "“CARBOXYLIC ACID DERIVATIVE-SUBSTITUTED IMINO ARYL COMPOUND, PREPARATION METHOD THEREFOR, HERBICIDAL COMPOSITION AND USE THEREOF” (Qingdao Kingagroot Chemical Compound Co., Ltd., priority 2020, published 2023)",
  "data": [
    {"system": "Echinochloa crusgalli", "assay": "Weeding effect in post-emergence stage", "assay_type": "in vivo", "settings": "Dose 15 g/ha; fresh weight control rate level", "procedure,_shortened": "(§1)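 Read-out is growth control rate, counted 3 weeks post-spray and averaged over three repeats. Greenhouse plants at the 2-3 leaf stage received spray-tower application at 500, 250, 125, 60, 30, 15 or 7.5 g/ha, with methyl oleate EC (1.5 liter/ha) and Tween 80 added.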", "values": [
      {"smiles": "C=C(Cl)COC(=O)C(C)O/N=C/c1cc(-n2c(=O)cc(C(F)(F)F)n(C)c2=O)c(F)cc1Cl", "note": "(stereo not drawn) [Compound 501]", "Weeding effect in post-emergence stage, Echinochloa crusgalli (level)": "5 (Level 5: growth control rate is above 85%)"},
      {"smiles": "CCN(CC)C(=O)C(C)ON=Cc1cc(-n2c(=O)cc(C(F)(F)F)n(C)c2=O)c(F)cc1Cl", "note": "(stereo not drawn) [Compound 502]", "Weeding effect in post-emergence stage, Echinochloa crusgalli (level)": "5 (Level 5: growth control rate is above 85%)"},
      {"smiles": "CC(ON=Cc1cc(-n2c(=O)cc(C(F)(F)F)n(C)c2=O)c(F)cc1Cl)C(=O)NS(=O)(=O)CCl", "note": "(stereo not drawn) [Compound 503]", "Weeding effect in post-emergence stage, Echinochloa crusgalli (level)": "5 (Level 5: growth control rate is above 85%)"},
      {"smiles": "COC(=O)C(C)O/N=C/c1nc(-n2c(=O)cc(C(F)(F)F)n(C)c2=O)c(F)cc1Cl", "note": "(stereo not drawn) [Compound 504]", "Weeding effect in post-emergence stage, Echinochloa crusgalli (level)": "5 (Level 5: growth control rate is above 85%)"},
      {"smiles": "COC(=O)C(C)ON=Cc1nc(-n2c(=O)n(C)c(=S)n(C)c2=O)c(F)cc1Cl", "note": "(stereo not drawn) [Compound 511]", "Weeding effect in post-emergence stage, Echinochloa crusgalli (level)": "5 (Level 5: growth control rate is above 85%)"}
    ]},
    {"system": "Setaria viridis", "assay": "Weeding effect in post-emergence stage", "assay_type": "in vivo", "settings": "Dose 15 g/ha; fresh weight control rate level", "procedure,_shortened": "as §1", "values": [
      {"smiles": "C=C(Cl)COC(=O)C(C)O/N=C/c1cc(-n2c(=O)cc(C(F)(F)F)n(C)c2=O)c(F)cc1Cl", "note": "(stereo not drawn) [Compound 501]", "Weeding effect in post-emergence stage, Setaria viridis (level)": "5 (Level 5: growth control rate is above 85%)"},
      {"smiles": "CCN(CC)C(=O)C(C)ON=Cc1cc(-n2c(=O)cc(C(F)(F)F)n(C)c2=O)c(F)cc1Cl", "note": "(stereo not drawn) [Compound 502]", "Weeding effect in post-emergence stage, Setaria viridis (level)": "5 (Level 5: growth control rate is above 85%)"},
      {"smiles": "CC(ON=Cc1cc(-n2c(=O)cc(C(F)(F)F)n(C)c2=O)c(F)cc1Cl)C(=O)NS(=O)(=O)CCl", "note": "(stereo not drawn) [Compound 503]", "Weeding effect in post-emergence stage, Setaria viridis (level)": "5 (Level 5: growth control rate is above 85%)"},
      {"smiles": "COC(=O)C(C)O/N=C/c1nc(-n2c(=O)cc(C(F)(F)F)n(C)c2=O)c(F)cc1Cl", "note": "(stereo not drawn) [Compound 504]", "Weeding effect in post-emergence stage, Setaria viridis (level)": "5 (Level 5: growth control rate is above 85%)"},
      {"smiles": "COC(=O)C(C)ON=Cc1nc(-n2c(=O)n(C)c(=S)n(C)c2=O)c(F)cc1Cl", "note": "(stereo not drawn) [Compound 511]", "Weeding effect in post-emergence stage, Setaria viridis (level)": "5 (Level 5: growth control rate is above 85%)"}
    ]},
    {"system": "Eleusine indica", "assay": "Weeding effect in post-emergence stage", "assay_type": "in vivo", "settings": "Dose 15 g/ha; fresh weight control rate level", "procedure,_shortened": "as §1", "values": [
      {"smiles": "C=C(Cl)COC(=O)C(C)O/N=C/c1cc(-n2c(=O)cc(C(F)(F)F)n(C)c2=O)c(F)cc1Cl", "note": "(stereo not drawn) [Compound 501]", "Weeding effect in post-emergence stage, Eleusine indica (level)": "5 (Level 5: growth control rate is above 85%)"},
      {"smiles": "CCN(CC)C(=O)C(C)ON=Cc1cc(-n2c(=O)cc(C(F)(F)F)n(C)c2=O)c(F)cc1Cl", "note": "(stereo not drawn) [Compound 502]", "Weeding effect in post-emergence stage, Eleusine indica (level)": "5 (Level 5: growth control rate is above 85%)"},
      {"smiles": "CC(ON=Cc1cc(-n2c(=O)cc(C(F)(F)F)n(C)c2=O)c(F)cc1Cl)C(=O)NS(=O)(=O)CCl", "note": "(stereo not drawn) [Compound 503]", "Weeding effect in post-emergence stage, Eleusine indica (level)": "5 (Level 5: growth control rate is above 85%)"},
      {"smiles": "COC(=O)C(C)O/N=C/c1nc(-n2c(=O)cc(C(F)(F)F)n(C)c2=O)c(F)cc1Cl", "note": "(stereo not drawn) [Compound 504]", "Weeding effect in post-emergence stage, Eleusine indica (level)": "5 (Level 5: growth control rate is above 85%)"},
      {"smiles": "COC(=O)C(C)ON=Cc1nc(-n2c(=O)n(C)c(=S)n(C)c2=O)c(F)cc1Cl", "note": "(stereo not drawn) [Compound 511]", "Weeding effect in post-emergence stage, Eleusine indica (level)": "5 (Level 5: growth control rate is above 85%)"}
    ]},
    {"system": "Digitaria sanguinalis", "assay": "Weeding effect in post-emergence stage", "assay_type": "in vivo", "settings": "Dose 15 g/ha; fresh weight control rate level", "procedure,_shortened": "as §1", "values": [
      {"smiles": "C=C(Cl)COC(=O)C(C)O/N=C/c1cc(-n2c(=O)cc(C(F)(F)F)n(C)c2=O)c(F)cc1Cl", "note": "(stereo not drawn) [Compound 501]", "Weeding effect in post-emergence stage, Digitaria sanguinalis (level)": "5 (Level 5: growth control rate is above 85%)"},
      {"smiles": "CCN(CC)C(=O)C(C)ON=Cc1cc(-n2c(=O)cc(C(F)(F)F)n(C)c2=O)c(F)cc1Cl", "note": "(stereo not drawn) [Compound 502]", "Weeding effect in post-emergence stage, Digitaria sanguinalis (level)": "5 (Level 5: growth control rate is above 85%)"},
      {"smiles": "CC(ON=Cc1cc(-n2c(=O)cc(C(F)(F)F)n(C)c2=O)c(F)cc1Cl)C(=O)NS(=O)(=O)CCl", "note": "(stereo not drawn) [Compound 503]", "Weeding effect in post-emergence stage, Digitaria sanguinalis (level)": "5 (Level 5: growth control rate is above 85%)"},
      {"smiles": "COC(=O)C(C)O/N=C/c1nc(-n2c(=O)cc(C(F)(F)F)n(C)c2=O)c(F)cc1Cl", "note": "(stereo not drawn) [Compound 504]", "Weeding effect in post-emergence stage, Digitaria sanguinalis (level)": "5 (Level 5: growth control rate is above 85%)"},
      {"smiles": "COC(=O)C(C)ON=Cc1nc(-n2c(=O)n(C)c(=S)n(C)c2=O)c(F)cc1Cl", "note": "(stereo not drawn) [Compound 511]", "Weeding effect in post-emergence stage, Digitaria sanguinalis (level)": "5 (Level 5: growth control rate is above 85%)"}
    ]},
    {"system": "Alopecurus japonicus", "assay": "Weeding effect in post-emergence stage", "assay_type": "in vivo", "settings": "Dose 15 g/ha; fresh weight control rate level", "procedure,_shortened": "as §1", "values": [
      {"smiles": "C=C(Cl)COC(=O)C(C)O/N=C/c1cc(-n2c(=O)cc(C(F)(F)F)n(C)c2=O)c(F)cc1Cl", "note": "(stereo not drawn) [Compound 501]", "Weeding effect in post-emergence stage, Alopecurus japonicus (level)": "5 (Level 5: growth control rate is above 85%)"},
      {"smiles": "CCN(CC)C(=O)C(C)ON=Cc1cc(-n2c(=O)cc(C(F)(F)F)n(C)c2=O)c(F)cc1Cl", "note": "(stereo not drawn) [Compound 502]", "Weeding effect in post-emergence stage, Alopecurus japonicus (level)": "5 (Level 5: growth control rate is above 85%)"},
      {"smiles": "CC(ON=Cc1cc(-n2c(=O)cc(C(F)(F)F)n(C)c2=O)c(F)cc1Cl)C(=O)NS(=O)(=O)CCl", "note": "(stereo not drawn) [Compound 503]", "Weeding effect in post-emergence stage, Alopecurus japonicus (level)": "5 (Level 5: growth control rate is above 85%)"},
      {"smiles": "COC(=O)C(C)O/N=C/c1nc(-n2c(=O)cc(C(F)(F)F)n(C)c2=O)c(F)cc1Cl", "note": "(stereo not drawn) [Compound 504]", "Weeding effect in post-emergence stage, Alopecurus japonicus (level)": "5 (Level 5: growth control rate is above 85%)"},
      {"smiles": "COC(=O)C(C)ON=Cc1nc(-n2c(=O)n(C)c(=S)n(C)c2=O)c(F)cc1Cl", "note": "(stereo not drawn) [Compound 511]", "Weeding effect in post-emergence stage, Alopecurus japonicus (level)": "5 (Level 5: growth control rate is above 85%)"}
    ]},
    {"system": "Abutilon theophrasti", "assay": "Weeding effect in post-emergence stage", "assay_type": "in vivo", "settings": "Dose 15 g/ha; fresh weight control rate level", "procedure,_shortened": "as §1", "values": [
      {"smiles": "C=C(Cl)COC(=O)C(C)O/N=C/c1cc(-n2c(=O)cc(C(F)(F)F)n(C)c2=O)c(F)cc1Cl", "note": "(stereo not drawn) [Compound 501]", "Weeding effect in post-emergence stage, Abutilon theophrasti (level)": "5 (Level 5: growth control rate is above 85%)"},
      {"smiles": "CCN(CC)C(=O)C(C)ON=Cc1cc(-n2c(=O)cc(C(F)(F)F)n(C)c2=O)c(F)cc1Cl", "note": "(stereo not drawn) [Compound 502]", "Weeding effect in post-emergence stage, Abutilon theophrasti (level)": "5 (Level 5: growth control rate is above 85%)"},
      {"smiles": "CC(ON=Cc1cc(-n2c(=O)cc(C(F)(F)F)n(C)c2=O)c(F)cc1Cl)C(=O)NS(=O)(=O)CCl", "note": "(stereo not drawn) [Compound 503]", "Weeding effect in post-emergence stage, Abutilon theophrasti (level)": "5 (Level 5: growth control rate is above 85%)"},
      {"smiles": "COC(=O)C(C)O/N=C/c1nc(-n2c(=O)cc(C(F)(F)F)n(C)c2=O)c(F)cc1Cl", "note": "(stereo not drawn) [Compound 504]", "Weeding effect in post-emergence stage, Abutilon theophrasti (level)": "5 (Level 5: growth control rate is above 85%)"},
      {"smiles": "COC(=O)C(C)ON=Cc1nc(-n2c(=O)n(C)c(=S)n(C)c2=O)c(F)cc1Cl", "note": "(stereo not drawn) [Compound 511]", "Weeding effect in post-emergence stage, Abutilon theophrasti (level)": "5 (Level 5: growth control rate is above 85%)"}
    ]}
  ]
}
